Values of other authors in US6025374A, “Azetidine, pyrrolidine and piperidine derivatives as 5HT1 receptor agonists” (Merck Sharp & Dohme, Ltd., priority 1994, dated 2000).

Conditions: therapeutic doses; literature

## CNS(=O)(=O)Cc1ccc2[nH]cc(CCN(C)C)c2c1 [sumatriptan]
  adverse events in humans: certain adverse cardiovascular events
